Molecules are shown by their SMILES.

Our source for the IC50 and Kd values is patent US9751861B2, “N1-(3,3,3-trifluoro-2-hydroxo-2-methylpropionyl)-piperidine derivatives as inhibitors of pyruvate dehydrogenase kinase” (MERCK PATENT GMBH, priority 2013, dated 2017).

One assay deals with T1, PDHK2 (Homo sapiens, UniProt Q15119).
T1 construct: purchased Carna Bioscience
In words: Biochemical activity testing of PDHK2: PDC inactivation assay. The conditions noted are these: human rec PDHK2, PDC from porcine heart, ATP 5 μM; read-out: IC50 PDHK2 (enzyme assay). The gist of the method: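 Human recombinant PDHK2 (137 nM final) preincubated 30 min at RT with porcine heart PDC (20 mU/ml) and compound in pH 7.0 phosphate buffer, then phosphorylated with 5 μM ATP for 30 min at 37 °C. Residual PDC activity read as NADH fluorescence increase (Ex 340/Em 450) over 45 min; inhibitor-free reaction as full value, 3 mM DCA as zero, IC50 derived.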

Another assay addresses T2, human PDHK2 (12-407) (Homo sapiens, UniProt Q15119).
T2 construct: The human PDHK2 (12-407) was produced in E. coli; His-tag (cleaved yes); made in house; host or cells: E. coli
In words: Isothermal titration calorimetry (ITC) binding. Particulars: 30° C., pH 7.5. The gist of the method:
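Untagged PDHK2 (12-407) from E. coli at 50 μM titrated into 5 μM compound at 30° C in pH 7.5 HEPES/KCl/MgCl2/phosphate buffer, ≤1% DMSO. One-site fit gave KA, ΔH^obs and N after heat-of-dilution correction; protein concentration referenced to a standard inhibitor and compound concentration adjusted to 1:1 stoichiometry.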
For orientation: Isothermal titration calorimetry measures the heat released or taken up as one component is titrated into another.

The next assay concerns PDH-Elalpha (pSer300). Description: Cellular immunofluorescence assay in HEK293T cells. The assay is classed as cell-based. The conditions noted are these: Homo sapiens, HEK-293T, 5 hours incubation, anti-PDH-E1alpha pSer300 immunofluorescence, read-out: IC50 (cell data). The method in brief: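 HEK293T cells were exposed to compound for 5 hours, then fixed, permeabilised and immunostained for PDH-Elalpha pSer300 with Hoechst counterstain, read by laser scanning cytometry. Percent effect was normalized to a pharmacological inhibitor control and fitted to dose-response curves.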

Regarding `C[C@@](O)(C(=O)N1CCC(c2ccnn2-c2ccccc2Cl)CC1)C(F)(F)F` [Compound A11, (R)-1-{4-[2-(2-Chloro-phenyl)-2H-pyrazol-3-yl]-piperidin-1-yl}-3,3,3-trifluoro-2-hydroxy-2-methyl-propan-1-one], the figures for the concentration for half-maximal inhibition (IC50) at PDHK2 and in the assay with PDH-Elalpha (pSer300) were below 300 nM and 300 to 3000 nM, respectively. In addition, the Kd on human PDHK2 (12-407) is below 300 nM.

Consider `COc1ccc(-n2nccc2C2CCN(C(=O)[C@@](C)(O)C(F)(F)F)CC2)cc1Cl` [Compound A48, (R)-3,3,3-Trifluoro-2-hydroxy-1-{4-[2-(3-chloro-4-methoxy-phenyl)-2H-pyrazol-3-yl]-piperidin-1-yl}-2-methyl-propan-1-one], for which the results for the IC50 at PDHK2 and with PDH-Elalpha (pSer300) were below 300 nM and 300 to 3000 nM, respectively. Moreover, the Kd at human PDHK2 (12-407) was below 300 nM.

Take `C[C@@](O)(C(=O)N1CCC(c2conc2-c2ccccc2)CC1)C(F)(F)F` [Compound A128, (R)-3,3,3-Trifluoro-2-hydroxy-2-methyl-1-[4-(3-phenyl-isoxazol-4-yl)-piperidin-1-yl]-propan-1-one]: the IC50 at PDHK2 lay in the range of 300 to 3000 nM; in the assay on PDH-Elalpha (pSer300), 3000 to 50000 nM. Further, at human PDHK2 (12-407), the Kd is below 300 nM.

Consider `C[C@@](O)(C(=O)N1CCC(c2cncn2-c2ccccc2)CC1)C(F)(F)F` [Compound A65, (R)-3,3,3-Trifluoro-2-hydroxy-2-methyl-1-[4-(3-phenyl-3H-imidazol-4-yl)piperidin-1-yl]-propan-1-one], for which the IC50 on PDHK2 and in the assay on PDH-Elalpha (pSer300) was 300 to 3000 nM throughout. Further, at human PDHK2 (12-407), the equilibrium dissociation constant (Kd) was below 300 nM.

With `C[C@@](O)(C(=O)N1CCC(c2ccnn2-c2cccc(F)c2)CC1)C(F)(F)F` [Compound A10, (R)-3,3,3-Trifluoro-1-{4-[2-(3-fluoro-phenyl)-2H-pyrazol-3-yl]-piperidin-1-yl}-2-hydroxy-2-methyl-propan-1-one], the IC50 at PDHK2 is below 300 nM; with PDH-Elalpha (pSer300), 300 to 3000 nM. For the same compound, the Kd at human PDHK2 (12-407) was below 300 nM.

The term IC50 denotes the concentration at which inhibition is half-maximal. The Kd is the free concentration of one partner at which half of the binding sites on the other are occupied at equilibrium, for simple one-to-one binding. Higher therefore signals lower affinity.
